Where “and” joins values, the source holds several entries; their conditions need not be identical. Identical values can stand only once.
What was measured:
[1] = Kinetics of hydrolysis followed by 1H NMR; format: physicochemical; details: for k (hydrolysis): 0.2 mM, 5% MeOD-d4/95% D2O, pH* 3
Experimental: Kinetics for Hydrolysis. Although complexes ZL01-ZL04, ZL07, ZL38 and ZL43 hydrolyzed too rapidly to monitor by ^1H NMR, The kinetics of hydrolysis for complexes ZL25, ZL33, ZL37 and ZL54 were followed by ^1H NMR at different temperatures. For this, solutions of the complexes with a final concentration of 0.2 mM in 5% MeOD-d4/95% D2O (v/v) were prepared by dissolution of the complexes in MeOD-d4 followed by rapid dilution using D2O with a pH* of about 3 (acidified with HClO4), so that the aqua ligand was not deprotonated. ^1H NMR spectra were taken after various time intervals. The rates of hydrolysis were determined by fitting plots of concentrations (determined from ^1H NMR peak integrals) versus time to a pseudo first-order equation using ORIGIN version 7.0. The Arrhenius activation energy (Ea), activation enthalpies (ΔH^¢), and activation entropy (ΔS^‡) for compounds ZL25, ZL33, ZL37 and ZL54 were determined from the slopes of the Arrhenius and intercepts of Eyring plots.
The rates of hydrolysis of compounds ZL01-ZL04, ZL07, ZL25, ZL33, ZL37, ZL38, ZL43 and ZL54 in a 5% MeOD-d4/95% D2O were monitored by ^1H NMR at different temperature from 278 to 298 K by the observation of new peaks over time due to aqua adduct formation. Five percent MeOD was used to improve solubility, and acidic conditions (D2O, pH* 3) were used to prevent the deprotonation of the aqua complex as a secondary reaction. […] The percentage of aqua peak formation for ZL25, ZL33, ZL37 and ZL54 was plotted against time and was fitted to pseudofirst order kinetics (FIG. 3), and their halflife times were calculated (Table 1). The Arrhenius activation energy (Ea), activation enthalpy (ΔH^¢), and activation entropy (ΔS^‡) of compound ZL25, ZL33, ZL37 and ZL54 are listed in Table 4. The large negative ΔS^‡value for compound ZL54 is notable. The extent of hydrolysis at equilibrium is medium for all compounds, ranged from 30% to 60%.

[2] = Aqua adduct formation of ZL33 at chloride levels of nucleus, cytoplasm and plasma (1H NMR); format: physicochemical; details: 1 mM in D2O, 310 K
Experimental: The effects of chloride concentrations typical of blood plasma (100 mM), cell cytoplasm (22.7 mM), and cell nucleus (4 mM) on the aqueous chemistry of ZL33 was investigated. ^1H NMR spectra of ZL33 (1 mM) were recorded within 10 min of sample preparation and after incubation at 310 K for 24 h (FIG. 4). […] (pH* 6.52) or in 22.7 mM [Cl] (pH* 6.72), and only 5% of ZL33A at 4 mM [Cl] (pH* 6.89) after 10 min. No significant change was observed after 24 h, see Table 2.

9-ethylguanine (9-EtG) = test: Interactions with nucleobases: 9-EtG adduct formation (1H NMR); format: binding; details: 1 mM, 1 mol equiv 9-EtG (ZL33A: 2 mol equiv), D2O, 310 K
In short: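 Complexes (1 mM, equilibrium mixture with their aqua adducts) in 5% MeOD-d4/95% D2O mixed with 1–2 mol equiv 9-EtG in D2O. Adduct formation followed by 1H NMR at 310 K over various time intervals.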

9-ethyladenine (9-EtA) = test: Interactions with nucleobases: 9-EtA adduct formation (1H NMR); format: binding; details: 10 min; 1 mM, 1 mol equiv 9-EtA, D2O, 310 K
Experimental: Interactions with Nucleobases. The reaction of ZL01, ZL03, ZL04, ZL07, ZL25, ZL33, ZL37, ZL38, ZL43 and ZL54 and ZL33A with nucleobases typically involved addition of a solution containing 1-2 mol equiv of nucleobase in D2O, to an equilibrium solution of ZL01, ZL03, ZL04, ZL07, ZL25, ZL33, ZL37, ZL38, ZL43, ZL54 and ZL33A in a solution of 5% MeOD-d4/95% D2O (v/v). ^1H NMR spectra of these solutions were recorded at 310 K after various time intervals.
Since DNA is a potential target site for transition metal anticancer complexes,^18 nucleobase binding reactions of compounds ZL01, ZL03, ZL04, ZL07, ZL25, ZL33, ZL33A, ZL37, ZL38, ZL43 and ZL54 with nucleobase models 9-ethylguanine (9-EtG) and 9-ethyladenine (9-EtA), were investigated. Solutions of ZL01, ZL03, ZL04, ZL07, ZL25, ZL33, ZL37, ZL38, ZL43 and ZL54 (1 mM) (containing an equilibrium mixture of these complexes and their respective aqua adducts) with 1 mol equivalent of 9-EtG or 9-EtA in D2O were prepared, and ^1H NMR spectra were recorded at different time intervals.

[3] = system: ca. 60 cell lines within nine tumour type subpanels; format: cell-based
Source text: Six complexes, [(η^5-C5Me4C6H4C6H5)Ir(bpy)Cl]PF6 (ZL25, bpy=2,2′-bipyridine), [(η^5-C5Me4C6H5)Ir(phen)Cl]PF6 (ZL33, phen=1,10-phenanthroline), [(η^5-C5Me4C6H4C6H5) Ir(pico)Cl] (ZL43, pico=picolinate), [(η^5-C5Me5)Ir(2-phpy)Cl] (ZL47), [(η^5-C5Me4C6H4C6H5)Ir(2-phPY)(D2O)Cl] (ZL49) and [(η^5-C5Me4C6H4C6H5) Ir(phen)Cl]PF6 (ZL54), were selected by Developmental Therapeutics Program of National Cancer Institute (NCI, U.S.A.) for in vitro screening test, in which 5 complexes except ZL43 are selected for further testing. The five complexes were tested on ca. 60 cell lines within nine tumour type subpanels at five concentrations ranging from 0.01 to 100 μM.

Cc1c(C)c(-c2ccccc2)[c-](C)c1C.F[P-](F)(F)(F)(F)F.[Cl-].[Ir+3].c1cnc2c(c1)ccc1cccnc12 (centres unmarked) [ZL33, [(η^5-C5Me4C6H5)Ir(phen)Cl]PF6]
k (hydrolysis) ([1]; 278 K): 0.033 min⁻¹
k (hydrolysis) ([1]; 283 K): 0.0693 min⁻¹
k (hydrolysis) ([1]; 288 K): 0.1264 min⁻¹
Ea (Arrhenius activation energy of hydrolysis) ([1]; from Arrhenius plot): 20.5 kcal/mol
ΔH^‡ (activation enthalpy of hydrolysis) ([1]; from Eyring plot): 20.06 kcal/mol
ΔS^‡ (activation entropy of hydrolysis) ([1]; from Eyring plot): 29.3 J K^−1mol^−1
% aqua adduct of ZL33 (ZL33A) ([2]; 4 mM NaCl, t = 10 min): 5%
% aqua adduct of ZL33 (ZL33A) ([2]; 4 mM NaCl, t = 24 h): 5%
% aqua adduct of ZL33 (ZL33A) ([2]; 22.7 mM NaCl, t = 24 h): 0%
% aqua adduct of ZL33 (ZL33A) ([2]; 100 mM NaCl, t = 24 h): 0%
Reaction with 9-EtG, extent of adduct formation (9-ethylguanine (9-EtG); 10 min): 15% and 15.5%
Reaction with 9-EtG, extent of adduct formation (9-ethylguanine (9-EtG); 24 h): 42.2%
Reaction with 9-EtA, extent of adduct formation (9-ethyladenine (9-EtA)): 0%
CC50 [3]: 93.3 µM
Mean graph midpoint (MID) TGI ([3]; ca. 60 cell lines, 0.01 to 100 μM): 51.3 µM
GI50 ([3]; ca. 60 cell lines, 0.01 to 100 μM, read-out: Mean graph midpoint (MID) GI50): 10.7 µM
selectivity among tumour type subpanels (in words) ([3]; mean graphs): selective for leukemia, CNS cancer, melanoma, and prostate cancer

Source: US9408853B2, “Iridium/rhodium anti-cancer compounds” (University of Warwick, priority 2010, dated 2016)
